Tests used:
Bombyx mori EcR (VBE) = biological target: T1, Bombyx mori EcR (VBE) (Bombyx mori, UniProt P49881); assay: Z3 assay: β-galactosidase reporter gene induction in HEK-293 clone Z3 (CVBE / 6XEcRE LacZ); type: cell-based; details: 33 μM ligand, 48 h, RLU relative to DMSO; for fold induction at 33 µM: HEK293, read-out: Fold Induction Average, Z3 assay
T1 construct: expressed in transfected cells; host or cells: Human HEK-293 cells, retrovirally infected, clone Z3
T1 sequence (P49881 86-606 limits assumed): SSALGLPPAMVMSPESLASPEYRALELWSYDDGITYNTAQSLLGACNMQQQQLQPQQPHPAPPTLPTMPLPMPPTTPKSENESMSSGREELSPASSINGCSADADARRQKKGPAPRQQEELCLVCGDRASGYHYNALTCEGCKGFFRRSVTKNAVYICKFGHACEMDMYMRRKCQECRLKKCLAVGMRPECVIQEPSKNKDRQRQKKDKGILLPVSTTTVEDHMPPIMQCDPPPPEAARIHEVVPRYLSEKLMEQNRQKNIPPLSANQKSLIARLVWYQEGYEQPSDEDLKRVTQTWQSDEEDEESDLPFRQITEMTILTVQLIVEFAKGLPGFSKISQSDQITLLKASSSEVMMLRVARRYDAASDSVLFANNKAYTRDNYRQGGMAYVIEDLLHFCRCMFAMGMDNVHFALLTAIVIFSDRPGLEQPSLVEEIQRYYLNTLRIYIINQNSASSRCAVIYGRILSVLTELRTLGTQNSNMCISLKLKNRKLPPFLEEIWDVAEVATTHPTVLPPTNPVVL
T1 sequence (P19793 1-462 partner): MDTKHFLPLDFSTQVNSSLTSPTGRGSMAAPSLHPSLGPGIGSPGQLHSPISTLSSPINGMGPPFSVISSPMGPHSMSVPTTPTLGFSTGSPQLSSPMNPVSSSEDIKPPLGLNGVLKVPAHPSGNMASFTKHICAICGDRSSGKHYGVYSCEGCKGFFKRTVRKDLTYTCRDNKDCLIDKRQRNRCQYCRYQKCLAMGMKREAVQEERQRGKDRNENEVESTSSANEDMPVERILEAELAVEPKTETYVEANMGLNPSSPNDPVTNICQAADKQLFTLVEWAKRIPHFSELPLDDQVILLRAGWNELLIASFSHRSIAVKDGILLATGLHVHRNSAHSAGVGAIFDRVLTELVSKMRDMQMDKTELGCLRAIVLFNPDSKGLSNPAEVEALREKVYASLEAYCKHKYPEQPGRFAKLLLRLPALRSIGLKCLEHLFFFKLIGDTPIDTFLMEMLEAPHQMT
Method: A synthetic ATG start codon was placed under the control of cytomegalovirus (CVBE) immediate early promoter and flanked by long terminal repeats (LTR). The reporter construct contained six copies of the ecdysone response element (EcRE) binding site placed upstream of LacZ and flanked on both sides with LTR sequences (6×EcRE).
Dilution cloning was used to isolate individual clones. Clones were selected using 450 ug/mL G418 and 100 ng/mL puromycin. Individual clones were evaluated based on their response in the presence and absence of test ligands.
Z3 cells were seeded into 96-well tissue culture plates at a concentration of 2.5×10^3 cells per well and incubated at 37° C. in 5% CO2 for twenty-four hours. Stock solutions of ligands were prepared in DMSO. […] The final concentration of DMSO was maintained at 0.03% in both controls and treatments.
Reporter gene expression was evaluated 48 hours after treatment of cells, β-galactosidase activity was measured using Gal Screen™ bioluminescent reporter gene assay system from Tropix (GSY1000). Fold induction activities were calculated by dividing relative light units (“RLU”) in ligand treated cells with RLU in DMSO treated cells. Luminescence was detected at room temperature using a Dynex MLX microtiter plate luminometer.
(§1) Each assay was conducted in two separate wells, and the two values were averaged. Fold inductions were calculated by dividing relative light units (“RLU”) in ligand treated cells with RLU in DMSO treated cells. EC50s were calculated from dose response data using a three-parameter logistic model.

[1] = biological target: T2, GAL4 DBD-CfEcR(DEF)/VP16AD-MmRXRE (Choristoneura fumiferana, UniProt O77240); assay: 13B3 assay: luciferase reporter gene induction in stable CHO clone 13B3; type: cell-based; details: 33/33.3 μM ligand, 48 h, RLU relative to DMSO; for fold induction at 33.3 µM: read-out: Fold Induction Average, 13B3 assay
T2 construct: The wild-type D, E, and F domains from spruce budworm Choristoneura fumiferana EcR (“CfEcR-DEF”)
Method: CHO cells were transiently transfected with transcription cassettes for GAL4 DBD-CfEcR(DEF) and for VP16AD-MmRXRF controlled by SV40e promoters. Stably transfected cells were selected using Hygromycin. Individually isolated CHO cell clones were transiently transfected with a GAL4 RE-luciferase reporter (pFR-Luc, Stratagene, La Jolla, Calif.). The 13B3 clone was selected using Zeocin.
Cells were trypsinized and diluted to a concentration of 2.5×10^4 cells mL. 100 μL of cell suspension was placed in each well of a 96 well plate and incubated at 37° C. under 5% CO2 for 24 h. Ligand stock solutions were prepared in DMSO and diluted 300 fold for all treatments.
Luciferase reporter gene expression was measured 48 h after cell treatment using Bright-Glo™ Luciferase Assay System from Promega (E2650). Luminescence was detected at room temperature using a Dynex MLX microtiter plate luminometer.
as §1

| SMILES | Fold Induction Average, Z3 assay (Bombyx mori EcR (VBE)) | Fold Induction Average, 13B3 assay [1] | fold induction at 33 µM (Bombyx mori EcR (VBE)) | fold induction at 33.3 µM [1] |
| --- | --- | --- | --- | --- |
| Cc1cc(C)cc(C2=NOC3(CCCC3)N2NC(=O)COCc2ccccc2)c1 [RG-120052] | 4.9 | 0.7 | – | – |
| Cc1cccc(NC(=O)NN2C(c3cc(C)cc(C)c3)=NOC2(C)C)c1 [RG-120056] | 1.0 | 0.1 | – | – |
| COc1ccccc1C1=NOC(C)(C)N1NC(=O)COc1ccccc1 [RG-120057] | 0.8 | 0.6 | – | – |
| COc1ccccc1C1=NOC(C)(C)N1NC(=O)C(F)(F)C(F)(F)Cl [RG-120062] | 0.6 | 0.2 | – | – |
| CC1(C)ON=C(c2ccc(OC(F)(F)F)cc2)N1NC(=O)COCc1ccccc1 [RG-120066] | 0.6 | 1.4 | – | – |
| CC1(C)ON=C(c2ccc(Cl)cc2)N1NC(=O)Nc1ccccc1 [RG-120067] | 0.5 | 2.6 | – | – |
| CC1(C)ON=C(c2cccc(C(F)(F)F)c2)N1NC(=O)c1ccco1 [RG-120070] | 0.7 | 0.4 | – | – |
| Cc1cc(C)cc(C2=NOC(C)(C)N2NC(=O)Nc2ccccc2)c1 [RG-120072, 1-[3-(3,5-Dimethyl-phenyl)-5,5-dimethyl-[1,2,4]oxadiazol-4-yl]-3-phenyl-urea] | – | – | 1.3 | 0.6 |
| CC1(C)ON=C(c2ccc(Cl)cc2)N1NC(=O)C(F)(F)C(F)(F)Cl [RG-120073] | 0.5 | 0.9 | – | – |
| COc1ccccc1C(=O)NN1C(c2cc(C)cc(C)c2)=NOC1(C)C [RG-120075] | 0.7 | 1.1 | – | – |
| COc1ccc(C2=NOC(C)(C)N2NC(=O)COc2ccccc2)c(OC)c1 [RG-120079] | 0.6 | 0.7 | – | – |
| CC1(C)ON=C(c2ccc3c(c2)OCO3)N1NC(=O)Cc1ccccc1 [RG-120081] | 0.6 | 0.5 | – | – |
| CC1(C)ON=C(c2ccc(Cl)cc2)N1NC(=O)c1ccco1 [RG-120082] | 0.8 | 0.1 | – | – |
| CCOC(=O)CCC(=O)NN1C(c2ccc3c(c2)OCO3)=NOC1(C)C [RG-120083] | 0.8 | 1.3 | – | – |
| COc1cccc(C(=O)NN2C(c3cc(C)cc(C)c3)=NOC23CCOCC3)c1C [RG-120086, N-[3-(3,5-dimethyl-phenyl)-1,8-dioxa-2,4-diaza-spiro[4.5]dec-2-en-4-yl]-3-methoxy-2-methyl-benzamide] | – | – | 112 | 4 |
| CC1(C)ON=C(c2ccc(Cl)cc2)N1NC(=O)c1cc2ccccc2s1 [RG-120087] | 0.4 | 0.4 | – | – |
| Cc1cc(C)cc(C2=NOC(C)(C)N2NC(=O)NCc2ccccc2)c1 [RG-120088] | 8.2 | 0.9 | – | – |

| SMILES | Fold Induction Average, Z3 assay (Bombyx mori EcR (VBE)) | Fold Induction Average, 13B3 assay [1] | fold induction at 33 µM (Bombyx mori EcR (VBE)) | fold induction at 33.3 µM [1] |
| --- | --- | --- | --- | --- |
| Cc1cc(C)cc(C2=NOC(C)(C)N2NC(=O)c2cccc([N+](=O)[O-])c2)c1 [RG-120091] | 1.5 | 0.5 | – | – |
| CC1(C)ON=C(c2ccc(OC(F)(F)F)cc2)N1NC(=O)c1ccco1 [RG-120094] | 0.8 | 0.6 | – | – |
| Cc1cc(C)cc(C2=NOC(C)(C)N2NC(=O)c2ccccc2[N+](=O)[O-])c1 [RG-120098] | 1.8 | 0.3 | – | – |
| COc1ccc(C2=NOC(C)(C)N2NC(=O)c2ccco2)c(OC)c1 [RG-120102] | 0.8 | 0.5 | – | – |
| COc1ccc(C2=NOC(C)(C)N2NC(=O)COCc2ccccc2)c(OC)c1 [RG-120110] | 0.5 | 0.8 | – | – |
| Cc1cc(C)cc(C2=NOC(C)(C)N2NC(=O)NC(=O)c2ccccc2)c1 [RG-120111] | 0.7 | 0.6 | – | – |
| COc1ccc(C2=NOC(C)(C)N2NC(=O)Nc2ccccc2)c(OC)c1 [RG-120114] | 0.6 | 1.1 | – | – |
| CC1(C)ON=C(c2ccc(Cl)cc2)N1NC(=O)COCc1ccccc1 [RG-120117] | 0.8 | 1.2 | – | – |
| CC1(C)ON=C(c2ccc(Cl)cc2)N1NC(=O)Cc1ccccc1 [RG-120121] | 0.7 | 0.1 | – | – |
| CC1(C)ON=C(c2ccc(OC(F)(F)F)cc2)N1NC(=O)Nc1ccccc1 [RG-120122] | 0.6 | 0.5 | – | – |
| CC1(C)ON=C(c2ccc3c(c2)OCO3)N1NC(=O)COc1ccccc1 [RG-120127] | 0.7 | 0.6 | – | – |
| COc1ccc(C2=NOC(C)(C)N2NC(=O)c2cc3ccccc3s2)c(OC)c1 [RG-120129] | 0.4 | 0.9 | – | – |
| CC1(C)ON=C(c2ccc3c(c2)OCO3)N1NC(=O)c1cc2ccccc2s1 [RG-120140] | 0.5 | 1.4 | – | – |
| CCc1ccc(C(=O)NN2C(c3ccc(-c4ccccc4)cc3)=NOC2(C)C)cc1 [RG-120142] | 0.4 | 0.3 | – | – |
| CCOC(=O)CCC(=O)NN1C(c2ccccc2OC)=NOC1(C)C [RG-120144] | 0.7 | 0.1 | – | – |
| CC1(C)ON=C(c2ccc3c(c2)OCO3)N1NC(=O)COCc1ccccc1 [RG-120145] | 0.5 | 1.4 | – | – |
| COc1ccccc1C1=NOC(C)(C)N1NC(=O)c1ccccc1 [RG-120147] | 1.0 | 1.1 | – | – |
